Source: patent publication US9986723B2, “Screen and use of therapeutics for pancreatic ductal adenocarcinoma” (The Board of Regents of the University of Texas System, priority 2014, dated 2018)

Test system: PanIN and PDA tumor growth in KIC mice
Assay: Two week in vivo assay in Rgs16::GFP;KIC mice, Rgs16::GFP intensity at P29
Set-up: species or system mouse
From the text: Fluorescent microscopy and GFP quantification. Pancreatic expression of Rgs16::GFP in GFP-PDA mice was quantified using a Zeiss Lumar microscope. Images were captured using a single-channel camera (Hamamatsu) in 1344×1024 resolution with 1 sec exposure under 48× magnification with 1×1 binning, analog gain=10, and analog offset=2 settings. Pancreatic fields representing the tumor burden (3-4 fields for P15 pups and 5 or more for pups from P23 onwards) of the pancreas were imaged covering up to 50% of the organ surface area. All images were saved in gray-scale 16-bit tiff format. Images were quantified using NIH ImageJ software with background subtraction with a radius of 50 pixels. A variable and tight threshold was set to eliminate residual background. Intensities of all particles with size ≥5 pixels were summed to obtain the total light intensity per image.
Drug dosages. GFP-PDA mice were injected intraperitoneally with gemcitabine (Eli Lilly; Indianapolis, Ind., USA) (12.5 mg/kg/day given 3 days/week, dissolved in PBS), Abraxane (Cellgene; Summit, N.J., USA) (5 mg/kg/day given 2 days/week, diluted in 2% saline solution), BGB324 (BerGenBio, Bergen, Norway) (5 mg/kg/day given 5 days/week, dissolved in a mix of DMSO:ethanol:Kolliphor EL:water with 4:4:8:84 v/v ratio), and warfarin (0.2 mg/kg/day given 5 days/week, dissolved in PBS) according to injection schedules specified below. These doses were validated in prior mouse studies (Dineen et al., 2010; Kutluk Cenik et al., 2013; Ostapoff et al., 2013; Aguilera et al., 2014; Ostapoff et al., 2014). […] To verify tumor progression remains constant over the duration of these experiments, assays of untreated mice were interspersed with drug-treated cohorts, and warfarin-treated pups were the final cohort the inventors tested. Gemcitabine, Abraxane and warfarin were purchased from the UT Southwestern clinical pharmacy; BGB324 was a gift from BerGenBio.
Statistical analysis of GFP expression. GFP values were converted to log10 scale prior to statistical analysis. Graphs and their statistical comparisons were done using Graphpad Prism software with unpaired and two-tailed Student's t test. Significance between groups was indicated as ns (not significant); *p<0.05; **p<0.01; ***p<0.001; ****p<0.0001. Error bars in all the graphs are standard error mean (SEM). See FIGS. 7-8 for additional statistical analysis.
The therapeutic screening strategy was to treat KIC pups between P15-P28 (when PanIN and PDA are in rapid expansion) with anticancer drugs, sacrifice mice at P29, and capture Rgs16::GFP intensity with a dissection fluorescence microscope. Images of the five brightest non-overlapping fields of Rgs16::GFP expression were then collected, representing the regions of greatest tumor burden (FIGS. 17A-C).

## CC(=O)CC(c1ccccc1)c1c(O)c2ccccc2oc1=O (racemic) [Warfarin]
KIC mice treated P15-P28, i.p., sacrificed P29
  effect on PanIN lesions and PDA tumor growth (Rgs16::GFP expression): no effect
P29, untreated 7%
  mice with at least one field in the lower 1% ile of all untreated fields: 19%
P29, untreated 14%
  mice with at least one field of Rgs16::GFP expression in pancreas greater than the upper 95% ile of all untreated fields: 13%
